From ChEMBL document CHEMBL1201862, “PubChem BioAssay data set” (2004)
Activity calls are given as the source filed them.

Assays:
[1] = Luminescence Cell-Based Dose Retest to Confirm Inhibitors of Cancer Stem Cells. [Related pubchem assays (depositor defined):AID2717, AID2721]; type: functional; settings: Homo sapiens
[2] = tested on: INS1; test: INS-1E survival protection against cytokine death – cell-based, luminescence, retest, dose response (AID 449756); type: functional; settings: Rattus norvegicus;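 also: cell death triggered by IL-1 beta plus TNF-alpha plus IFN-gamma mixture; protective hits raise ATP signal compared with cytokine alone wells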
[3] = P. falciparum Dd2 growth inhibitors, dose response, SYBR Green, cherry-picked samples (AID 1159567); type: functional, cell-based
[4] = biological target: Luciferin 4-monooxygenase (Photinus pyralis, UniProt P08659); test: inhibition of purified Photinus pyralis luciferase – biochemical, luminescence, dose response (AID 1891)
Luciferin 4-monooxygenase, sequence (P08659 whole entry): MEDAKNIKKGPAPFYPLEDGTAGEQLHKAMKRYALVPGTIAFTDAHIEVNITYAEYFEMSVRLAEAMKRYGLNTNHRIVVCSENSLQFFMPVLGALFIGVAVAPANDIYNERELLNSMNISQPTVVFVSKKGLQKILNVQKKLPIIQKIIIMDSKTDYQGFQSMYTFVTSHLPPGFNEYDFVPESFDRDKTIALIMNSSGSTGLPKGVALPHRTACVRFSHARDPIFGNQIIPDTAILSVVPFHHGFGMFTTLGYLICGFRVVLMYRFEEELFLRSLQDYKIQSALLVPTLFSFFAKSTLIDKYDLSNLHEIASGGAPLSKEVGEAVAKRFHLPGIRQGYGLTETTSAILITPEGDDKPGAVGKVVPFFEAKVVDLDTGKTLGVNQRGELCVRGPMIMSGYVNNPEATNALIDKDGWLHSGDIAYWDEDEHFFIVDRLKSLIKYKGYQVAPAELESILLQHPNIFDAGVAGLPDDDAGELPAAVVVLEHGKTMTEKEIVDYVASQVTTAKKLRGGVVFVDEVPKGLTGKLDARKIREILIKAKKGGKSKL

[5] = Luminescence Cell-Based Dose Confirmation HTS to Identify Inhibitors of Platelet Dense Granule Release. [Related pubchem assays: 1663 (Primary HTS), 1678 (Summary of Project)]; type: functional
[6] = biological target: T1, Short transient receptor potential channel 4 (Mus musculus, UniProt Q9QUQ5); test: block of DAMGO-driven TRPC4 calcium entry – cell-based, HEK293 TRPC4/mu-opioid, Fluo-4 calcium, dose response (AID 434942); type: functional;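 also: potency of inhibitors blocking the TRPC4 calcium response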
T1 sequence (Q9QUQ5 whole entry): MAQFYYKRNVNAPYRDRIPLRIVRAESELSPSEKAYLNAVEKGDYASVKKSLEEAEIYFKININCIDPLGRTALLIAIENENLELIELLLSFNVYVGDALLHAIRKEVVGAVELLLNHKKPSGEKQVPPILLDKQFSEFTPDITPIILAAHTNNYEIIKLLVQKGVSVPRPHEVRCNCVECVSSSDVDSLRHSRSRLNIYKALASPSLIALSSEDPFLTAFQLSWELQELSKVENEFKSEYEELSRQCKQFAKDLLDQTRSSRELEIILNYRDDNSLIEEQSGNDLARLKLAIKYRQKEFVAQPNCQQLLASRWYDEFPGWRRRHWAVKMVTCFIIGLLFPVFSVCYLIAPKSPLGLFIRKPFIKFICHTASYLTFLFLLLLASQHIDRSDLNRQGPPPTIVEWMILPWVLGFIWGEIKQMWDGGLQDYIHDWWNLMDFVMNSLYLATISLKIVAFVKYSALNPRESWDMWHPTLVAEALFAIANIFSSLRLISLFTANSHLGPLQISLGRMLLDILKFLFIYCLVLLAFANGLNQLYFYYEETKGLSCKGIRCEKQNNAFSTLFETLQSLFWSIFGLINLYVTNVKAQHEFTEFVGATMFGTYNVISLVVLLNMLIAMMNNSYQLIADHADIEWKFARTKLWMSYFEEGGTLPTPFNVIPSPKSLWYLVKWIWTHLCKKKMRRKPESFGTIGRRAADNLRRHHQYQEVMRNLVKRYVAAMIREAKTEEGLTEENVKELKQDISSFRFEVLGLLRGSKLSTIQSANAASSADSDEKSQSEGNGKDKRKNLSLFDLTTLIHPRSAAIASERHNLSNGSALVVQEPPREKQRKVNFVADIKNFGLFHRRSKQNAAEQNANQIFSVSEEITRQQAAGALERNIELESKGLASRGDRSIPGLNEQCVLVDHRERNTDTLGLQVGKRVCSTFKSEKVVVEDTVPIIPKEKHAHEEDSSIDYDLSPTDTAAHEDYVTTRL

[7] = biological target: FAD-linked sulfhydryl oxidase ALR (Homo sapiens, UniProt P55789); test: ALR-catalysed DTT oxidation blockers – biochemical, H2O2 detection, luminescence, cherry-pick, dose response (AID 493248)
FAD-linked sulfhydryl oxidase ALR, sequence (P55789 whole entry): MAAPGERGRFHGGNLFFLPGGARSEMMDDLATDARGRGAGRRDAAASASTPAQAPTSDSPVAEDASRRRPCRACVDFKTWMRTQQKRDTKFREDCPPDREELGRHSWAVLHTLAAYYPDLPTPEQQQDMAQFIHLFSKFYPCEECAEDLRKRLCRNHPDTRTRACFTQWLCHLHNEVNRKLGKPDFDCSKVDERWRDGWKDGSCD

[8] = biological target: T2, Calpain-2 catalytic subunit (Sus scrofa, UniProt P43367); test: m-calpain protease blockers, concentration series – biochemical, fluorogenic peptide substrate, dose response (AID 1420); type: functional
T2 sequence (P43367 whole entry): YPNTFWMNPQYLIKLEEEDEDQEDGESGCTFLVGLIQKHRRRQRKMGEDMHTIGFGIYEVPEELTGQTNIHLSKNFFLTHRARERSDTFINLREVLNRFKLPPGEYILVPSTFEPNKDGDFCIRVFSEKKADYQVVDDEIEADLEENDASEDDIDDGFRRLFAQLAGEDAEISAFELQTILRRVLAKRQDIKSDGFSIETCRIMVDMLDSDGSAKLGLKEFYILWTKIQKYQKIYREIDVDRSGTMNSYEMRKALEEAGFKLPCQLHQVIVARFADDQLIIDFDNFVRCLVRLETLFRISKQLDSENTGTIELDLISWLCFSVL

[9] = viability of PTEN-deleted HCT116 cells – cell-based, HCT116 PTEN knockout, dose response (AID 1047); type: functional;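 also: HCT116 colon tumor cells with PTEN knocked out; cells exposed to compound for 60 hours before readout; potency for loss of cell viability measured by luminescence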
[10] = blockers of HIV-1 envelope-mediated cell-cell fusion – cherry-pick, dose response (AID 652057); type: functional, cell-based
[11] = tested on: BJ; test: cells; type: functional, cell-based; settings: Homo sapiens
[12] = tested on: BJ; test: BJ-TERT-LT-ST fibroblast viability loss – cell-based, RAS-independent, luminescence, dose response (AID 1935); type: functional; settings: Homo sapiens;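 also: BJ fibroblasts immortalized with TERT plus LT and ST oncogenes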
[13] = tested on: BJ; test: BJ-TERT fibroblast viability loss – cell-based, RAS-independent, luminescence, dose response (AID 1933); type: functional; settings: Homo sapiens
[14] = DRD fibroblast viability loss – cell-based, non-viral oncogenic, luminescence, dose response (AID 1934); type: functional; settings: Homo sapiens
[15] = HIV-1 AD8 envelope cell-cell fusion blockers – cherry-pick, dose response (AID 652062); type: functional, cell-based;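 also: luciferase signal from cell-cell fusion driven by HIV-1 clade B AD8 Env; potency is for inhibitors of fusion seen as a drop in luminescence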

O=C(N/N=C/c1cc(Cl)ccc1O)C(=O)Nc1ccccc1OC(F)(F)C(F)F
AC50 [1]: 2.35 µM (active)
AC50 [2]: 2.7 µM (active)

N#C[C@@H]1[C@H](c2ccccc2-c2cccc(F)c2)[C@H](CO)N1C(=O)C1CCCC1
AC50 [3]: 2.8 µM (active)

CN(C)C(=O)CN1C(=O)C2CC=C(Cl)CC2C1=O (configuration not stated)
EC50 [4]: > 112 µM (not active)
EC50 [5]: > 112 µM (not active)

OC[C@@H]1Nc2ccc(C3=CCCCC3)cc2[C@@H]2[C@H]1CCN2Cc1nccs1
AC50 [3]: 6.24 µM (active)

CN1CCN(c2ccc(NC(=O)c3ccc(Cl)cc3)cn2)CC1
AC50 [1]: 19.8 µM (active)

CC(=O)OCCCN1C(=O)c2cccc3cc(Br)cc(c23)C1=O
EC50 [6]: 0.211 µM (active)

COc1cc(OC)cc(C(=O)Nc2ccc3c(c2)OCCO3)c1
EC50 [4]: 3.95 µM (active)
EC50 [5]: 6.36 µM (active)

O=C(C1CCCCC1)N1CC(=O)N2[C@H](CO)[C@@H](c3ccc(C#CCc4ccccc4)cc3)[C@@H]2C1
AC50 [3]: 5.61 µM (active)

Cc1ccc(C(=O)N/N=C\c2ccc(-c3ccc(Cl)c(Cl)c3)o2)cn1
AC50 [1]: 3.71 µM (active)

O=C(NCCCn1ccnc1)C(=O)NCC(c1ccco1)N1CCN(c2ccccc2)CC1 (configuration not stated)
AC50 [7]: 3.74 µM (active)

COc1cc(C2NCC(c3ccc(Cl)cc3Cl)c3c2[nH]c2ccccc32)cc(OC)c1OC (configuration not stated)
AC50 [1]: 3.7 µM (active)

O=C(CCN1C(=O)/C(=C/c2ccc3c(c2)OCO3)SC1=S)Nc1ccccc1
IC50 [8]: 24.8 µM (not active)

O=S(=O)(c1ccccc1)c1cc(O)ccc1O
AC50 [7]: 6.08 µM (active)

COc1cc(-c2nc(-c3ccc(NC(=O)c4ccc(Br)o4)cc3)no2)cc(OC)c1OC
AC50 [1]: 0.725 µM (active)

Cc1cc(C)c2nc(O)c(CN(Cc3cccnc3)C(S)=NCCCN(C)C)cc2c1
EC50 [6]: 2.37 µM (active)

COc1ccc(N2CCN(C(=O)CCn3nnc4ccccc43)CC2)cc1
AC50 [7]: 6.11 µM (active)

CCCCCC(=O)Nc1nc(C)c(-c2csc(Nc3cc(OC)ccc3OC)n2)s1
AC50 [1]: 1.29 µM (active)

Clc1ccc2c(c1)-c1nnc(Br)n1-c1ccccc1S2
EC50 [6]: 5.96 µM (active)

COc1ccc(C(=O)NC2CCSc3ccccc32)cc1 (configuration not stated)
EC50 [4]: > 112 µM (not active)
EC50 [5]: > 112 µM (not active)

O=C(NCc1ccccc1)/C(NC(=O)c1ccccc1)=C(/Sc1ccccn1)c1ccccc1
EC50 [4]: > 112 µM (not active)
EC50 [5]: > 112 µM (not active)

Cc1cnc(C(=O)N2CCCC(C(=O)c3ccc(Cl)cc3C)C2)cn1 (configuration not stated)
EC50 [4]: > 112 µM (not active)
EC50 [5]: > 112 µM (not active)

COc1ccc(C(CNC(=O)c2oc3ccc(F)cc3c2C)N2CCCCC2)cc1 (configuration not stated)
EC50 [6]: 1.88 µM (active)

COc1cccc2c(N/N=C/c3ccccc3)cc(C)nc12
AC50 [7]: 6.41 µM (active)

COc1ccccc1NC(=O)c1cc(O)nc2ccccc12
AC50 [7]: 0.202 µM (active)

CCCn1c(SCC(=O)c2ccc3c(c2)NC(=O)CO3)nc2ccccc21
EC50 [9]: 22.4 µM (active)

CSc1ncccc1C(=O)OCC(=O)Nc1ccc(C)c(S(=O)(=O)N2CCOCC2)c1
AC50 [10]: 53.2 µM (active)

CCc1cccc(CC)c1NC(=O)c1cc(CN2C(=O)c3ccccc3C2=O)ccc1OC
IC50 [8]: 3.81 µM (not active)

CC(C)OC(=O)CSc1nnc(COc2ccc([N+](=O)[O-])cc2)n1C
IC50 [8]: 9.11 µM (not active)

Cc1c(C(=O)c2ccc(Cl)c([N+](=O)[O-])c2)c2ccccn2c1CCC#N
EC50 [11]: > 150 µM (not active)
EC50 [12]: > 150 µM (inconclusive)
EC50 [13]: > 150 µM (not active)
EC50 [14]: > 150 µM (not active)

CC1=NN(C(C#N)c2cccc([N+](=O)[O-])c2)C(C)(C)C1 (configuration not stated)
EC50 [4]: > 112 µM (not active)
EC50 [5]: > 112 µM (not active)

CC(C)N=C(S)N1CCN(C/C=C/c2ccccc2)CC1
EC50 [6]: 4.73 µM (active)

Cc1c(CCOC(=O)c2cccc([N+](=O)[O-])c2)sc[n+]1CC(=O)c1ccccc1
EC50 [6]: 6.68 µM (active)

O=C(O)c1cccc(NC(=O)c2cc(-c3cccc(Cl)c3)nc3ccccc23)c1
AC50 [7]: 0.01 µM (active)

CCS(=O)(=O)N1CCC2(CC1)CN(Cc1cc(F)ccc1F)[C@H](CO)c1c2c2ccc(OC)cc2n1C
AC50 [3]: 6.16 µM (active)

O=C(CCC(=O)c1cccs1)Nc1ccc(N2CCCCC2)cc1
AC50 [7]: 6.49 µM (active)

CCOC(=O)CSc1nc2c(sc(=S)n2-c2ccccc2OC)c(=O)n1-c1ccccc1OC
EC50 [6]: 2.37 µM (active)

Cc1ccc(S(=O)(=O)N(C)C[C@H]2Oc3ncc(Br)cc3C(=O)N([C@@H](C)CO)C[C@@H]2C)cc1
AC50 [15]: 5.51 µM (active)
AC50 [10]: 4.57 µM (active)

COC(=O)Cc1c(C)c2ccc(OCC(=O)N3CCC(C)CC3)c(C)c2oc1=O
EC50 [4]: > 112 µM (not active)
EC50 [5]: 22.1 µM (active)

C[C@H]1CN([C@@H](C)CO)C(=O)c2c(c3ccccc3n2C)-c2ccccc2CO[C@@H]1CN(C)Cc1ccc(Oc2ccccc2)cc1
AC50 [3]: 1.76 µM (active)

C/C=C/c1ccc([C@@H]2[C@H]3CNC[C@@H]2N3Cc2cc(F)ccc2F)cc1
AC50 [3]: 4 µM (active)

NC(=O)CC(NC(=O)Cc1cccc2ccccc12)c1ccc(N2CCc3ccccc3C2)c([N+](=O)[O-])c1 (configuration not stated)
AC50 [1]: 12.2 µM (active)

COc1cc2c(cc1OC)CN(C(=O)c1cc(=O)c3ccccc3o1)CC2
EC50 [11]: 43.3 µM (active)
EC50 [12]: > 150 µM (inconclusive)
EC50 [13]: 18.6 µM (active)
EC50 [14]: 14.1 µM (active)

COc1cccc(CN2CC3(CN(Cc4ccccn4)C3)c3c([nH]c4cc(OC)ccc34)[C@@H]2CO)c1
AC50 [3]: 6.62 µM (active)

COc1cc(/C=N/n2c(C)nnc2S)ccc1OCc1ccccc1
AC50 [7]: 0.861 µM (active)

Cc1nn(-c2nc3ccccc3n2Cc2ccccc2)c2c1C(=O)CC(C)(C)C2
EC50 [6]: 2.11 µM (active)

CC(=O)Oc1ccc(-c2cc3c(OC(C)=O)cc(OC(C)=O)cc3oc2=O)cc1
EC50 [4]: > 112 µM (not active)
EC50 [5]: 13.7 µM (active)

C[C@H]1CN([C@@H](C)CO)C(=O)c2c(c3ccccc3n2C)-c2ccccc2CO[C@@H]1CN(C)S(=O)(=O)c1ccc(C(F)(F)F)cc1
AC50 [3]: 4.6 µM (active)

CC1(c2ccccc2)CC(C)(C)N(C(=O)C2CCCO2)c2ccccc21 (configuration not stated)
EC50 [6]: 3.76 µM (active)

Cn1c(S)nnc1-c1cnn(-c2ccccc2)c1N
EC50 [4]: > 112 µM (not active)
EC50 [5]: 4.85 µM (active)

CCOC(=O)C1(Cc2ccccc2)CCN(Cc2ccc(C)s2)CC1
EC50 [6]: 0.133 µM (active)
